The text below walks through data of EP4678638A1, “NEW E3 UBIQUITIN LIGASE LIGAND, PROTEIN DEGRADATION AGENT AND USE THEREOF” (priority 2023, dated 2024).

For orientation: inhibition means the percentage by which the read-out fell short of the control.

One assay has as its system H1975. The assay can be described thus: CCK-8 proliferation, NCI-H1975 (H1975). The class given is cell-based, Human. The note with it: Homo sapiens, NCI-H1975; CCK-8; 96 hours; read-out: Inhibitory activity (IC50) on tumor cell proliferation, H1975. The method, then:
The tumor cells used herein were cultured in a cell culture medium listed in table A1 at 37°C in an incubator with 5% CO2. Prior to experimentation, all cell lines used were correctly identified by STR profiling, and tested negative for mycoplasma contamination using a mycoplasma detection kit through routine screenings. Table A1. Tumor cells and cell culture medium used in the present disclosure
IC50 values of the compounds of the present disclosure (including the compounds in Table 1, and compounds of examples) were measured using the Meilun Cell Counting Kit-8 kit from Dalian Meilun Biotech Co., Ltd. Assay details are as follows: tumor cells were seeded in a 96-well plate at a density listed in Table A2. After 24h, 100 µL of the inoculated cells were treated with 0.5µL of the compounds of the present disclosure (including the compounds in Tables 1 and 2, and compounds of examples) at 10 different successively decreasing concentrations (starting at the highest concentration of 10µM; 5-fold serial dilutions). After the cells were treated with the compounds of the present disclosure for a period of time, the cell viability detection reagent was added to the culture medium for cell viability assessment according to the instructions provided with the CCK-8 kit. […] The growth inhibition of the compounds of the present disclosure on cells was plotted by Prism Graphpad software, and the IC50 values of the compounds of the present disclosure were calculated therefrom. […] Seeding protocol and treatment time for tumor cells

The target of assay [1] is T1, human Cereblon WT GST-tagged protein (Homo sapiens, UniProt Q96SW2).
T1 construct: purchased CISBIO 64BDCRBNPEH
T1 sequence (Q96SW2 whole entry): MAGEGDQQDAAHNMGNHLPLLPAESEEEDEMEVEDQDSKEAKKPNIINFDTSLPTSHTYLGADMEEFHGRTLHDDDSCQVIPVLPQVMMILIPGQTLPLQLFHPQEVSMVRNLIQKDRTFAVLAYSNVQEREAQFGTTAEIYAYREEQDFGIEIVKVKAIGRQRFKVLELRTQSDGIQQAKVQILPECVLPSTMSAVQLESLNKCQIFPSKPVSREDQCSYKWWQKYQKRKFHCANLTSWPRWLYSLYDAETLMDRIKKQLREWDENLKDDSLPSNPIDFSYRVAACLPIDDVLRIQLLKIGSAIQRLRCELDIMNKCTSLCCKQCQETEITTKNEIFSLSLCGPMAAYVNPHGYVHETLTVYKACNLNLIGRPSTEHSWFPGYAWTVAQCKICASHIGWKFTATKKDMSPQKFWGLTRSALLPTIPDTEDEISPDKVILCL
The assay can be described thus: CRBN binding, HTRF (CEREBLON BINDING kit). The note with it: Table II-2, CRBN binding screening, HTRF; for inhibition at 0.5 µM: read-out: Inhibition rate (%) at 0.5µM; for inhibition at 2 µM: read-out: Inhibition rate (%) at 2 µM. In outline: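 Competitive HTRF: GST-tagged human WT Cereblon mixed with compound, Thalidomide-Re tracer and GST Eu antibody, incubated 3 h at room temperature. Signals read at 620 and 665 nm.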
Background: In TR-FRET formats the signal depends on donor and acceptor labels being close together.

`CN(Cc1ccc(C2CCC(=O)NC2=O)cc1)C1CCN(c2ccc(-c3cc(F)c4c(c3)C(=O)N(C(C(=O)Nc3nccs3)c3ncn5c3CCC5)C4)cc2)CC1` (stereo not shown) [GT-05218, 2-(6,7-dihydro-5H-pyrrolo[1,2-c]imidazol-1-yl)-2-(6-(4-(4-((4-(2,6-dioxopiperidin-3-yl)benzyl)(methyl)amino)piperidin-1-yl)phenyl)-4-fluoro-1-oxoisoindolin-2-yl)-N-(thiazol-2-yl)acetamide]: the IC50 with H1975 was 1 to 10 nM.

Regarding `CN(Cc1ccc(N2CCC(=O)NC2=O)cc1)C1CCN(c2ccc(-c3cc(F)c4c(c3)C(=O)N(C(C(=O)Nc3nccs3)c3ncn5c3CCC5)C4)cc2)CC1` (stereo not shown) [GT-05219, 2-(6,7-dihydro-5H-pyrrolo[1,2-c]imidazol-1-yl)-2-(6-(4-(4-((4-(2,4-dioxotetrahydropyrimidin-1(2H)-yl)benzyl)(methyl)amino)piperidin-1-yl)phenyl)-4-fluoro-1-oxoisoindolin-2-yl)-N-(thiazol-2-yl)acetamide], in the assay on H1975, the IC50 is 1 to 10 nM.

With `CN(Cc1cccc(N2CCC(=O)NC2=O)c1)C1CCN(c2ccc(-c3cc(F)c4c(c3)C(=O)N(C(C(=O)Nc3nccs3)c3ncn5c3CCC5)C4)cc2)CC1` (stereo not shown) [GT-05281, 2-(6,7-dihydro-5H-pyrrolo[1,2-c]imidazol-1-yl)-2-(6-(4-(4-((3-(2,4-dioxotetrahydropyrimidin-1(2H)-yl)benzyl)(methyl)amino)piperidin-1-yl)phenyl)-4-fluoro-1-oxoisoindolin-2-yl)-N-(thiazol-2-yl)acetamide], in the assay on H1975, the IC50 is 1 to 10 nM.

On to `CN(Cc1ccc(N2CCC(=O)NC2=O)cn1)C1CCN(c2ccc(-c3cc(F)c4c(c3)C(=O)N(C(C(=O)Nc3nccs3)c3ncn5c3CCC5)C4)cc2)CC1` (stereo not shown) [GT-05282, 2-(6,7-dihydro-5H-pyrrolo[1,2-c]imidazol-1-yl)-2-(6-(4-(4-(((5-(2,4-dioxotetrahydropyrimidin-1(2H)-yl)pyridin-2-yl)methyl)(methyl)amino)piperidin-1-yl)phenyl)-4-fluoro-1-oxoisoindolin-2-yl)-N-(thiazol-2-yl)acetamide], for which, in the assay with H1975, the IC50 lay within 1 to 10 nM.

As to `CN(Cc1ccc(N2CCC(=O)NC2=O)nc1)C1CCN(c2ccc(-c3cc(F)c4c(c3)C(=O)N(C(C(=O)Nc3nccs3)c3ncn5c3CCC5)C4)cc2)CC1` (stereo not shown) [GT-05283, 2-(6,7-dihydro-5H-pyrrolo[1,2-c]imidazol-1-yl)-2-(6-(4-(4-(((6-(2,4-dioxotetrahydropyrimidin-1(2H)-yl)pyridin-3-yl)methyl)(methyl)amino)piperidin-1-yl)phenyl)-4-fluoro-1-oxoisoindolin-2-yl)-N-(thiazol-2-yl)acetamide], the IC50 with H1975 lay within 1 to 10 nM.

On to `O=C1CCC(c2ccc(CN3C[C@H]4C[C@@H]3CN4c3ccc(-c4cc(F)c5c(c4)C(=O)N(C(C(=O)Nc4nccs4)c4ncn6c4CCC6)C5)cc3)cc2)C(=O)N1` (stereo partly drawn) [GT-06176, 2-(6,7-dihydro-5H-pyrrolo[1,2-c]imidazol-1-yl)-2-(6-(4-((1R,4R)-5-(4-(2,6-dioxopiperidin-3-yl)benzyl)-2,5-diazabicyclo[2.2.1]heptan-2-yl)phenyl)-4-fluoro-1-oxoisoindolin-2-yl)-N-(thiazol-2-yl)acetamide], for which, in the assay on H1975, the IC50 lay within 1 to 10 nM.

Regarding `O=C1CCC(Nc2cccc(CN3C[C@H]4C[C@@H]3CN4c3ccc(-c4cc(F)c5c(c4)C(=O)N(C(C(=O)Nc4nccs4)c4ncn6c4CCC6)C5)cc3)c2)C(=O)N1` (stereo partly drawn) [GT-06179, 2-(6,7-dihydro-5H-pyrrolo[1,2-c]imidazol-1-yl)-2-(6-(4-((1R,4R)-5-(3-((2,6-dioxopiperidin-3-yl)amino)benzyl)-2,5-diazabicyclo[2.2.1]heptan-2-yl)phenyl)-4-fluoro-1-oxoisoindolin-2-yl)-N-(thiazol-2-yl)acetamide], the IC50 in the assay with H1975 lay within 10 to 50 nM.

As to `O=C1CCN(c2ccc(CN3C[C@H]4C[C@@H]3CN4c3ccc(-c4cc(F)c5c(c4)C(=O)N(C(C(=O)Nc4nccs4)c4ncn6c4CCC6)C5)cc3)cn2)C(=O)N1` (stereo partly drawn) [GT-06191, 2-(6,7-dihydro-5H-pyrrolo[1,2-c]imidazol-1-yl)-2-(6-(4-((1R,4R)-5-((6-(2,4-dioxotetrahydropyrimidin-1(2H)-yl)pyridin-3-yl)methyl)-2,5-diazabicyclo[2.2.1]heptan-2-yl)phenyl)-4-fluoro-1-oxoisoindolin-2-yl)-N-(thiazol-2-yl)acetamide], in the assay on H1975, the IC50 fell in the range of 1 to 10 nM.

As to `O=C1CCC(c2ccc(CN3C4CCC3CN(c3ccc(-c5cc(F)c6c(c5)C(=O)N(C(C(=O)Nc5nccs5)c5ncn7c5CCC7)C6)cc3)C4)cc2)C(=O)N1` (stereo not shown) [GT-06252, 2-(6,7-dihydro-5H-pyrrolo[1,2-c]imidazol-1-yl)-2-(6-(4-(8-(4-(2,6-dioxopiperidin-3-yl)benzyl)-3,8-diazabicyclo[3.2.1]octan-3-yl)phenyl)-4-fluoro-1-oxoisoindolin-2-yl)-N-(thiazol-2-yl)acetamide], in the assay with H1975, the IC50 lay within 1 to 10 nM.

With `O=C1CCN(c2ccc(CN3C4CCC3CN(c3ccc(-c5cc(F)c6c(c5)C(=O)N(C(C(=O)Nc5nccs5)c5ncn7c5CCC7)C6)cc3)C4)nc2)C(=O)N1` (stereo not shown) [GT-06255, 2-(6,7-dihydro-5H-pyrrolo[1,2-c]imidazol-1-yl)-2-(6-(4-(8-((5-(2,4-dioxotetrahydropyrimidin-1(2H)-yl)pyridin-2-yl)methyl)-3,8-diazabicyclo[3.2.1]octan-3-yl)phenyl)-4-fluoro-1-oxoisoindolin-2-yl)-N-(thiazol-2-yl)acetamide], the IC50 with H1975 was 1 to 10 nM.

Take `O=C1CCN(c2ccc(CN3CCC(N4CCN(c5ccc(-c6cc(F)c7c(c6)C(=O)N(C(C(=O)Nc6nccs6)c6ncn8c6CCC8)C7)cc5)CC4)CC3)cc2)C(=O)N1` (stereo not shown) [GT-06327, 2-(6,7-dihydro-5H-pyrrolo[1,2-c]imidazol-1-yl)-2-(6-(4-(4-(1-(4-(2,4-dioxotetrahydropyrimidin-1(2H)-yl)benzyl)piperidin-4-yl)piperazin-1-yl)phenyl)-4-fluoro-1-oxoisoindolin-2-yl)-N-(thiazol-2-yl)acetamide]: the IC50 in the assay with H1975 lay in the range of 1 to 10 nM.

For `O=C1CCN(c2cnc(CN3C[C@H]4C[C@@H]3CN4c3ccc(-c4cc(F)c5c(c4)C(=O)N(C(C(=O)Nc4nccs4)c4ncn6c4CCC6)C5)cc3)cn2)C(=O)N1` (stereo partly drawn) [GT-07826, 2-(6,7-dihydro-5H-pyrrolo[1,2-c]imidazol-1-yl)-2-(6-(4-((1R,4R)-5-((5-(2,4-dioxotetrahydropyrimidin-1(2H)-yl)pyrazin-2-yl)methyl)-2,5-diazabicyclo[2.2.1]heptan-2-yl)phenyl)-4-fluoro-1-oxoisoindolin-2-yl)-N-(thiazol-2-yl)acetamide], the inhibition at 0.5 µM in assay [1] (at 0.5µM) was 10 to 20%. The inhibition at 2 µM in assay [1] (at 2 µM) fell in the range of 53 to 60%.

In the case of `CC1(C)CCC(c2ccc(Cl)cc2)=C(CN2CCN(c3ccc(C(=O)NS(=O)(=O)c4ccc(N[C@H](CCN5CC6CCC5CN6Cc5ccc(C6CCC(=O)NC6=O)cc5)CSc5ccccc5)c(S(=O)(=O)C(F)(F)F)c4)cc3)CC2)C1` (stereo partly drawn) [GT-07878, 4-(4-((4'-chloro-4,4-dimethyl-3,4,5,6-tetrahydro-[1,1'-biphenyl]-2-yl)methyl)piperazin-1-yl)-N-((4-(((2R)-4-(5-(4-(2,6-dioxopiperidin-3-yl)benzyl)-2,5-diazabicyclo[2.2.2]octan-2-yl)-1-(phenylthio)butan-2-yl)amino)-3-((trifluoromethyl)sulfonyl)phenyl)sulfonyl)benzamide], in assay [1] (at 0.5µM), the “Inhibition rate (%) at 0.5µM” value is reported as “a3 (30% < a3 ≤ 40%)”. Moreover, the “Inhibition rate (%) at 2 µM” value in assay [1] (at 2 µM) was “a5 (53% < a5 ≤ 60%)”.

As for `CC1(C)CCC(c2ccc(Cl)cc2)=C(CN2CCN(c3ccc(C(=O)NS(=O)(=O)c4ccc(N[C@H](CCN5CC6CCC5CN6Cc5cccc(NC6CCC(=O)NC6=O)c5)CSc5ccccc5)c(S(=O)(=O)C(F)(F)F)c4)cc3)CC2)C1` (stereo partly drawn) [GT-07882, 4-(4-((4'-chloro-4,4-dimethyl-3,4,5,6-tetrahydro-[1,1'-biphenyl]-2-yl)methyl)piperazin-1-yl)-N-((4-(((2R)-4-(5-(3-((2,6-dioxopiperidin-3-yl)amino)benzyl)-2,5-diazabicyclo[2.2.2]octan-2-yl)-1-(phenylthio)butan-2-yl)amino)-3-((trifluoromethyl)sulfonyl)phenyl)sulfonyl)benzamide], the inhibition at 0.5 µM in assay [1] (at 0.5µM) is 30 to 40%. In addition, in assay [1] (at 2 µM), the inhibition at 2 µM fell in the range of 30 to 40%.

Take `[2H]C1([2H])N(CC[C@H](CSc2ccccc2)Nc2ccc(S(=O)(=O)NC(=O)c3ccc(N4CCN(CC5=C(c6ccc(Cl)cc6)CCC(C)(C)C5)CC4)cc3)cc2S(=O)(=O)C(F)(F)F)C([2H])([2H])C([2H])([2H])N(Cc2ccc(C3CCC(=O)NC3=O)cc2)C1([2H])[2H]` (stereo partly drawn) [GT-07906, 4-(4-((4'-chloro-4,4-dimethyl-3,4,5,6-tetrahydro-[1,1'-biphenyl]-2-yl)methyl)piperazin-1-yl)-N-((4-(((2R)-4-(4-(4-(2,6-dioxopiperidin-3-yl)benzyl)piperazin-1-yl-2,2,3,3,5,5,6,6-d8)-1-(phenylthio)butan-2-yl)amino)-3-((trifluoromethyl)sulfonyl)phenyl)sulfonyl)benzamide]: the inhibition at 0.5 µM in assay [1] (at 0.5µM) fell in the range of 20 to 30%. In addition, the inhibition at 2 µM in assay [1] (at 2 µM) was in the range of 53 to 60%.
